In the NIST ThermoML archive (doi:10.1016/j.jct.2017.10.012):

Details: Liquid, Vibrating tube method

CCCC[n+]1cccc(C)c1.O=S(=O)([N-]S(=O)(=O)C(F)(F)F)C(F)(F)F
Details	mass density [kg/m3]
278.15 K, 100 kPa	1431.5
278.15 K, 101.33 kPa	1430.9
278.15 K, 1000 kPa	1432.1
278.15 K, 10000 kPa	1438.3
278.15 K, 20000 kPa	1444.9
278.15 K, 40000 kPa	1457.2
278.15 K, 60000 kPa	1468.5
278.15 K, 80000 kPa	1479.1
278.15 K, 100000 kPa	1488.9
278.15 K, 120000 kPa	1498.1
279.15 K, 101.33 kPa	1429.9
280.15 K, 101.33 kPa	1428.9
281.15 K, 101.33 kPa	1427.9
282.15 K, 101.33 kPa	1427
283.15 K, 101.33 kPa	1426
284.15 K, 101.33 kPa	1425
285.15 K, 101.33 kPa	1424
286.15 K, 101.33 kPa	1423.1
287.15 K, 101.33 kPa	1422.1
288.15 K, 101.33 kPa	1421.2
289.15 K, 101.33 kPa	1420.2
290.15 K, 101.33 kPa	1419.3
291.15 K, 101.33 kPa	1418.3
292.15 K, 101.33 kPa	1417.4
293.15 K, 101.33 kPa	1416.5
294.15 K, 101.33 kPa	1415.6
295.15 K, 101.33 kPa	1414.6
296.15 K, 101.33 kPa	1413.7
297.15 K, 101.33 kPa	1412.8
298.15 K, 100 kPa	1413.3
298.15 K, 101.33 kPa	1411.9
298.15 K, 1000 kPa	1414
298.15 K, 10000 kPa	1420.4
298.15 K, 20000 kPa	1427.3
298.15 K, 40000 kPa	1440.1
298.15 K, 60000 kPa	1452
298.15 K, 80000 kPa	1463
298.15 K, 100000 kPa	1473.5
298.15 K, 120000 kPa	1483.1
299.15 K, 101.33 kPa	1410.9
300.15 K, 101.33 kPa	1410
301.15 K, 101.33 kPa	1409.1
302.15 K, 101.33 kPa	1408.2
303.15 K, 101.33 kPa	1407.3
304.15 K, 101.33 kPa	1406.4
305.15 K, 101.33 kPa	1405.4
306.15 K, 101.33 kPa	1404.5
307.15 K, 101.33 kPa	1403.6
308.15 K, 101.33 kPa	1402.7
309.15 K, 101.33 kPa	1401.8
310.15 K, 101.33 kPa	1400.9
311.15 K, 101.33 kPa	1399.9
312.15 K, 101.33 kPa	1399
313.15 K, 100 kPa	1399.8
313.15 K, 101.33 kPa	1398.1
313.15 K, 1000 kPa	1400.5
313.15 K, 10000 kPa	1407.3
313.15 K, 20000 kPa	1414.5
313.15 K, 40000 kPa	1428
313.15 K, 60000 kPa	1440.3
313.15 K, 80000 kPa	1451.7
313.15 K, 100000 kPa	1462.4
313.15 K, 120000 kPa	1472.1
314.15 K, 101.33 kPa	1397.2
315.15 K, 101.33 kPa	1396.3
316.15 K, 101.33 kPa	1395.4
317.15 K, 101.33 kPa	1394.5
318.15 K, 101.33 kPa	1393.6
319.15 K, 101.33 kPa	1392.7
320.15 K, 101.33 kPa	1391.8
321.15 K, 101.33 kPa	1390.9
322.15 K, 101.33 kPa	1390
323.15 K, 101.33 kPa	1389.2
324.15 K, 101.33 kPa	1388.2
325.15 K, 101.33 kPa	1387.4
326.15 K, 101.33 kPa	1386.5
327.15 K, 101.33 kPa	1385.6
328.15 K, 101.33 kPa	1384.7
329.15 K, 101.33 kPa	1383.8
330.15 K, 101.33 kPa	1382.9
331.15 K, 101.33 kPa	1382.1
332.15 K, 101.33 kPa	1381.3
333.15 K, 100 kPa	1381.5
333.15 K, 101.33 kPa	1380.4
333.15 K, 1000 kPa	1382.2
333.15 K, 10000 kPa	1389.6
333.15 K, 20000 kPa	1397.2
333.15 K, 40000 kPa	1411.4
333.15 K, 60000 kPa	1424.4
333.15 K, 80000 kPa	1436.3
333.15 K, 100000 kPa	1447.5
333.15 K, 120000 kPa	1457.6
334.15 K, 101.33 kPa	1379.4
335.15 K, 101.33 kPa	1378.5
336.15 K, 101.33 kPa	1377.6
337.15 K, 101.33 kPa	1376.7
338.15 K, 101.33 kPa	1375.8
339.15 K, 101.33 kPa	1374.9
340.15 K, 101.33 kPa	1374.1
341.15 K, 101.33 kPa	1373.3
342.15 K, 101.33 kPa	1372.4
343.15 K, 101.33 kPa	1371.4
344.15 K, 101.33 kPa	1370.5
345.15 K, 101.33 kPa	1369.7
346.15 K, 101.33 kPa	1368.7
347.15 K, 101.33 kPa	1367.8
348.15 K, 100 kPa	1367.9
348.15 K, 101.33 kPa	1366.9
348.15 K, 1000 kPa	1368.7
348.15 K, 10000 kPa	1376.4
348.15 K, 20000 kPa	1384.4
348.15 K, 40000 kPa	1399.2
348.15 K, 60000 kPa	1412.7
348.15 K, 80000 kPa	1425
348.15 K, 100000 kPa	1436.5
348.15 K, 120000 kPa	1446.9
349.15 K, 101.33 kPa	1366
350.15 K, 101.33 kPa	1364.9
351.15 K, 101.33 kPa	1364
352.15 K, 101.33 kPa	1363
353.15 K, 101.33 kPa	1362.2
354.15 K, 101.33 kPa	1361.2
355.15 K, 101.33 kPa	1360.4
356.15 K, 101.33 kPa	1359.4
357.15 K, 101.33 kPa	1358.6
358.15 K, 101.33 kPa	1357.7
359.15 K, 101.33 kPa	1356.8
360.15 K, 101.33 kPa	1356
361.15 K, 101.33 kPa	1355.1
362.15 K, 101.33 kPa	1354.3
363.15 K, 101.33 kPa	1353.4
364.15 K, 101.33 kPa	1352.6
365.15 K, 101.33 kPa	1351.7
366.15 K, 101.33 kPa	1350.9
367.15 K, 101.33 kPa	1350
368.15 K, 101.33 kPa	1349.2
369.15 K, 101.33 kPa	1348.3
370.15 K, 101.33 kPa	1347.5
371.15 K, 101.33 kPa	1346.7
372.15 K, 101.33 kPa	1345.8
373.15 K, 100 kPa	1346.3
373.15 K, 101.33 kPa	1345
373.15 K, 1000 kPa	1346.5
373.15 K, 10000 kPa	1354.8
373.15 K, 20000 kPa	1363.4
373.15 K, 40000 kPa	1379.2
373.15 K, 60000 kPa	1393.5
373.15 K, 80000 kPa	1406.6
373.15 K, 100000 kPa	1418.7
373.15 K, 120000 kPa	1429.9
398.15 K, 100 kPa	1324.8
398.15 K, 1000 kPa	1324.6
398.15 K, 10000 kPa	1333.5
398.15 K, 20000 kPa	1342.9
398.15 K, 40000 kPa	1359.8
398.15 K, 60000 kPa	1374.9
398.15 K, 80000 kPa	1388.7
398.15 K, 100000 kPa	1401.4
398.15 K, 120000 kPa	1413.4
